Several values for one entry are separate records, joined by “and”; a condition that tells them apart may be missing. Identical values can stand only once. Activity calls are given as the source filed them.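 How the source made its calls: active means compounds giving half or more protection of infected cells from virus-caused growth loss, again on retest; inactive means the rest.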
Test system: CEM cells HIV-1 protection, formazan growth assay
Experiment: NCI AIDS Antiviral Assay
Settings: for IC50: measured here: growth of uninfected CEM cells
Outline: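 Category rules: moderately active means at least 50% protection on retest, and confirmed active means 100% protection reproducibly. The underlying data came from a formazan growth assay in HIV-1-infected CEM cells.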

Structure (SMILES)	EC50	IC50	outcome
CCP(=O)(CC)C(Cl)(Cl)C(=O)NC	> 200 µM	> 200 µM	
COC(=O)C1C(=O)NC2(C)CC1c1ccccc1O2 (configuration not stated)			inactive
O=C1CC2CC(CC3(CO3)C2)C1F (configuration not stated)	> 200 µM	> 200 µM	
CC1=C(C(=O)NCCc2ccccc2)CC(C(=O)NCCc2ccccc2)=C(C)N1	> 200 µM	123 µM	
CN(C)CC(=O)N1CC(COS(C)(=O)=O)c2ccc(O)cc21 (configuration not stated)	> 20 µM	3.47 µM	
COc1ccc(C2=CC(=O)CCC2)cc1	> 178 µM	> 178 µM	
O=C1[C@H]2ON(c3ccccc3)C(c3ccc(Cl)cc3)[C@H]2C(=O)N1c1ccc(Cc2ccc(N3C(=O)[C@@H]4ON(c5ccccc5)C(c5ccc(Cl)cc5)[C@@H]4C3=O)cc2)cc1 (some centres not stated)	> 6.31 µM	> 6.31 µM	
COC(=O)[C@@H]1C(CO)[C@H](n2cc(C)c(=O)[nH]c2=O)C1(C)C (some centres not stated)	> 437 µM	> 437 µM	
O=c1[nH]/c(=C/c2ccc3c(c2)OCO3)c(=O)[nH]/c1=C/c1ccc2c(c1)OCO2			inactive
CCOc1ccc(NC(=O)CC2Sc3ccccc3NC2=O)cc1 (configuration not stated)	> 11 µM	> 11 µM	
O=C(O)c1cc(O)c2c(c1)C(=O)c1cc(O)cc(O)c1C2=O			inactive
CC1C2CC(CC2(C)O)C1(C)C (configuration not stated)	> 562 µM	> 562 µM	
CC1(C)N/C(=C\[N+](=O)[O-])C(C)(C)N1O	> 200 µM	> 200 µM	
O=C1OCC2(CO1)CC1C=CC2C1 (configuration not stated)	> 200 µM	> 200 µM	
CN=C(NC(=S)N(C)C)N(C)C			inactive
NC(C(=O)O)C(CC(=O)O)c1ccccc1 (configuration not stated)	> 200 µM	112 µM and > 200 µM	
O=C1OC2(CC1C1(O)C3CC4CC(C3)CC1C4)C1CC3CC(C1)CC2C3 (configuration not stated)	> 100 µM	38.9 µM	
COc1cc2c(cc1OC)C(c1ccccc1CCCCl)=NCC2	> 200 µM	75.9 µM	
O=[N+]([O-])c1ccc(-c2noc(-c3ccc(Cl)cc3)c2C2=NCCN2)cc1	> 14.1 µM	> 14.1 µM	
CCCCCCCCCC(=O)CC(=O)c1c(O)cc(O)cc1O	> 200 µM	26.3 µM	
C[C@]12CCC(=O)C=C1CC[C@@H]1C2CC[C@]2(C)Nc3[nH]ncc3CC12 (some centres not stated)			inactive
O=c1oc2cccnc2n1CCCCN1CCN(c2ccccc2)CC1	> 200 µM	126 µM	

Structure (SMILES)	EC50	IC50	outcome
CC12CCC(=O)N1c1ccccc1N2 (configuration not stated)	> 501 µM	> 501 µM	
COc1ccc(N2C(=O)CC(=O)N(C(=O)CCCCCCCCC(=O)N3C(=O)CC(=O)N(c4ccc(OC)cc4)C3=S)C2=S)cc1	> 200 µM	102 µM	
CCN(CC)c1c(-c2ccccc2)nnc2c3ccccc3nn12	> 200 µM	24 µM	
Cc1ccc2c(n1)C(N1CCOCC1)=CC(=O)C2=O			inactive
O=S(=O)(N1CCCCN(S(=O)(=O)C(F)(F)F)CCCN(S(=O)(=O)C(F)(F)F)CCCCN(S(=O)(=O)C(F)(F)F)CCCN(S(=O)(=O)C(F)(F)F)CCCCN(S(=O)(=O)C(F)(F)F)CCCN(S(=O)(=O)C(F)(F)F)CCCCN(S(=O)(=O)C(F)(F)F)CCC1)C(F)(F)F	> 200 µM	> 200 µM	
CC(C)COC(=O)CS(=O)(=O)O	> 200 µM	> 200 µM	
CCC[CH2][Sn]([CH2]CCC)([O]C(=O)C(OC(C)=O)c1ccccc1)[O]C(=O)C(OC(C)=O)c1ccccc1 (configuration not stated)	> 11.5 µM	0.191 µM	
O=C(CC(=O)N1N=C(c2ccccc2)C(N=Nc2ccccc2[N+](=O)[O-])C1=O)Nc1ccccc1F (configuration not stated)	> 27.5 µM	> 27.5 µM	
Cc1ccccc1C1=[N+]([O-])c2ccccc2C1=O			inactive
Cn1cnc([N+](=O)[O-])c1Sc1nc2ccc([N+](=O)[O-])cc2[nH]1	> 81.3 µM	7.76 µM	
C[N+](C)([O-])Cc1cccc(NC(=O)c2ccc(C(=O)Nc3cccc(C[N+](C)(C)[O-])c3)cc2)c1	> 200 µM	> 200 µM	
Cc1nc2ccccc2n(CC2CCCN3CCCC[C@H]23)c1=O (some centres not stated)	> 200 µM	> 200 µM	
O=C1C=C(c2ccccc2)C2(c3ccccc3)C1C1C(c3ccccc3)=C(c3ccccc3)C2C12SCCS2 (configuration not stated)	> 200 µM	3.39 µM	
CCOC(=O)/C(F)=C/c1ccc(OC)cc1	> 115 µM	> 115 µM	
OC(c1cccs1)c1cc2ccccc2s1 (configuration not stated)	> 200 µM	117 µM	
Cn1c(C(=O)c2cc3ccccc3n2C)cc2ccccc21	> 18.2 µM	> 18.2 µM	
Nc1nc(SC2CCCCC2)nc2c1ncn2C1OC(CO)C(O)C1O (configuration not stated)	> 200 µM	138 µM	
C=C1C2CCC3(CCC4C5(C)CCCC4(CN(CCO)C5)C3C2)C1O (configuration not stated)			inactive
Cc1nc(N)c(N2CCN(C(=O)O)CC2)c(=O)[nH]1	> 200 µM	> 200 µM	
COc1cc(N=Nc2cc(NC(C)=O)c(N=Nc3ccc(C(=O)O)cc3)cc2S(=O)(=O)O)c(C)cc1N=Nc1ccc(NC(=O)c2ccc(N)cc2)cc1C	14.1 µM	> 100 µM	
CCCCCO/N=C\c1c2c(O)c3c(O)c(C)c4c(c3c1O)C(=O)C(C)(O/C=C\C(OC)C(C)C(OC(C)=O)C(C)C(O)C(C)C(O)C(C)/C=C\C=C(\C)C(=O)N2)O4 (configuration not stated)	> 200 µM	8.91 µM	
O=C(CCc1n[nH]c(=S)o1)Nc1ccccc1C(F)(F)F	> 295 µM	229 µM	

Structure (SMILES)	EC50	IC50	outcome
Cn1cc(S(=O)(=O)NC(=O)Nc2ccc(Cl)cc2)c(=O)c2ccc(Cl)cc21	> 200 µM	36.3 µM	
CC(=O)Nc1ccc(-c2nnc(SCC(=O)Nc3ccc(Cl)cc3Cl)o2)cc1	> 42.7 µM	25.1 µM	
C[n+]1c(-c2ccc(/C=N/NC(=O)c3ccc(C(=O)N/N=C/c4ccc(-c5cn6ccccc6[n+]5C)cc4)cc3)cc2)cn2ccccc21	> 3.89 µM	0.0224 µM	
O=S(=O)(c1ccccc1)[C@H]1[C@@H]2O[C@@H]2C[C@@H]1O	> 1050 µM	55 µM	
Cc1cc(Br)c2nsnc2c1[N+](=O)[O-]	> 26.3 µM	2.57 µM	
C=CCc1c(O)c2nsnc2c2nsnc12	> 200 µM	> 200 µM	
COC(=O)c1cc2cccc(CS(=O)(=O)O)c2cc1O	> 200 µM	21.4 µM	
COc1ccc(/C=C\c2cc(OC)c(OC)c(OC)c2)cc1OP(=O)(O)O	> 35.5 µM	0.0282 µM	
O=C1N(c2ccccc2)C2(O)C(=O)c3ccccc3C2(O)N1c1ccccc1 (configuration not stated)	> 676 µM	110 µM	
CC(C)[Si]1(C(C)C)OCC2OC(n3ccc(=O)[nH]c3=O)C([Se]c3ccccc3)C2O[Si](C(C)C)(C(C)C)O1 (configuration not stated)	> 200 µM	10.7 µM	
Fc1ccc2c(c1)CN(CCN1COc3ccc(F)cc3C1)CO2	> 8.13 µM	> 8.13 µM	
CCCCCCOc1ccc(C(=N)N(CCCC)CCCC)c2ccccc12	> 200 µM	3.39 µM	
Cc1cc(C)nc(NS(=O)(=O)c2ccc(N=c3c4ccccc4n(Cc4ccccc4)c4ccccc34)cc2)n1			inactive
O=S(=O)(Sc1ccc(Cl)cc1)c1ccc(Cl)cc1	> 20 µM	4.27 µM	
CCOC(=O)NC1CS(=O)(=O)CC1Cl (configuration not stated)	> 200 µM	> 200 µM	
CN(C)C(=O)C(NCCO)c1ccccc1 (configuration not stated)	> 200 µM	74.1 µM	
CC(=O)OCC(OC(C)=O)C(OC(C)=O)C(OC(C)=O)C(=O)CNn1c(-c2ccccc2)nc2ccc(Br)cc2c1=O (configuration not stated)			inactive
CC(=O)NCCC1CN(C(=O)/C=C/I)c2ccccc21 (configuration not stated)	> 200 µM	1.1 µM	
Cc1cc(C)[s+]s1	> 200 µM	112 µM and 182 µM	
CC1=NC(=Cc2cc(Br)cc(Br)c2)C(=O)N1n1c(-c2ccccc2)nc2ccccc2c1=O	> 200 µM	87.1 µM	
CC(=O)Nc1ccc(C(=O)NN2C(=O)C(Cl)C2/C=C/c2ccccc2)cc1 (configuration not stated)	135 µM	166 µM	
CN(C)Cc1cc(CN(C)C)cc(CN(C)C)c1	> 200 µM	> 200 µM	

Structure (SMILES)	EC50	IC50	outcome
Cc1ccc(-n2cc(-c3ccc(Cl)cc3)c3c2N=CN2NC(c4ccco4)=NC32)cc1 (configuration not stated)	> 100 µM	74.1 µM	
N#Cc1cnn2c1n[n+]([O-])c1ccc(Cl)cc12	> 100 µM	7.76 µM	
CCNC(=O)NNc1ncnc2c1c(-c1ccc(Cl)cc1)cn2-c1ccc(C)cc1	> 200 µM	35.5 µM	
c1ccc(CCN2CCc3[nH]c4ccccc4c3C2)cc1	> 200 µM	39.8 µM	
COCCOCCOCCOCCOCCOCCOCCOCCOCCOCCOCCOCCOCCOCCOCCOCCOCC(=O)N(CCn1ccc(N)nc1=O)CCn1cnc2nc(N)[nH]c(=O)c21	> 117 µM	> 117 µM	
COC(=O)[C@@]12CCCC(=O)[C@@H]1[C@H]1CCCC[C@H]12	> 200 µM	110 µM	
COc1ccc(Nc2nc3c(N)cc(C(F)(F)F)cc3nc2-c2ccccc2)cc1OC	> 16.2 µM	> 16.2 µM	
CCOC(=O)C(=O)N=Nc1nc2c(O)c3ccccc3c(O)c2s1	> 15.1 µM	8.71 µM	
CCC(C)COC(=O)c1ccc(N=Cc2ccc(C=Nc3ccc(C(=O)OCC(C)CC)cc3)cc2)cc1 (configuration not stated)	> 2.82 µM	> 2.82 µM	
Cc1ccc(NC(=O)CCc2n[nH]c(=S)o2)cc1	> 5.5 µM	> 5.5 µM	
CCOC(=O)C1(C(=O)OCC)CCC(C(OC)OC)C(CC(=O)OC)C1 (configuration not stated)	> 200 µM	> 200 µM	
O=c1[nH]nc(-c2ccccc2)n1/N=C/c1ccc([N+](=O)[O-])cc1	> 200 µM	> 200 µM	
CC1=NN(c2ccccc2)C(=O)/C1=C\N1CC(=O)NC1=S	> 200 µM	87.1 µM	
COC/C=C\[C@]1(O)CCCC[C@@H]1CC(OC)OC	> 200 µM	30.9 µM	
CC12CCC(O1)C1C(=O)OC(=O)C12 (configuration not stated)	> 490 µM	437 µM	
COC1=NC2=NCCN2C(OC)=N1	> 200 µM	> 200 µM	
O=[As](O)(O)c1cc(N=Nc2ccc(-c3ccc(N=Nc4cc([As](=O)(O)O)c(O)cc4O)cc3)cc2)c(O)cc1O	6.61 µM	7.76 µM	
Cc1n[nH]c(=O)n1/N=C\CC/C=N\n1c(C)n[nH]c1=O	> 200 µM	> 200 µM	
N/N=C(\Cc1ccccc1)NN=C(N)N	> 457 µM	389 µM	
O=C(NNC(=O)c1cc2ccccc2[nH]1)c1cc2ccccc2[nH]1	> 200 µM	> 200 µM	

Source: PubChem BioAssay AID179 (DTP/NCI, 2004)
